Test results: PMC11726150, “Pre‐ADMET studies of 5‐(3′,4′‐dihydroxyphenyl)‐γ‐valerolactone, the bioactive intestinal metabolite of proanthocyanidins” (Archiv Der Pharmazie, 2024)
Where “and” joins values, the source holds several entries; their conditions need not be identical. Identical values can stand only once. Counter-ions that a name gives are not always drawn.

Experiments:
Wt‐MDCK monolayers = experiment: In vitro transport study across 5‐day Wt‐MDCK monolayers; format: in vitro ADME, canine; conditions: Wt‐MDCK model, VL 50 μM dosed (VLS formed as metabolite), controls 10 μM, N = 4
Description: (§1) Caco2 cells between passage numbers 42–50 and MDCK cells between passage numbers 21–26 were used for transport studies; the assay was conducted as reported by Volpe^[ [33] ^] with slight modifications. Transport experiments were performed in 12‐well Transwell plates. Caco2 cells were seeded at a density of 60,000 cells/cm^2 and grown for 21 days, with change of media every 3 days, while MDCK cells were seeded at a density of 70,000 cells/cm^2 and grown for 5 days, changing the medium daily. The physiological and morphological formation of a confluent monolayer was evaluated by measuring the TEER value: Caco2 monolayers became confluent 1 week after seeding with TEER values greater than 450 Ω/cm^2, while MDCK monolayers became confluent 24 h after seeding with TEER values greater than 90 Ω/cm^2. Phenol red and serum‐free DMEM/F12 medium was used as transport buffer. For bidirectional transport, VL (50 μM) and control compound (propranolol and paclitaxel, 10 μM) were added to the apical side to determine apical to basolateral transport (A–B; absorptive direction) and to the basal side to determine basolateral to apical transport (B–A; secretory direction). The volume of the apical and basolateral chambers was 0.5 and 1.5 mL, respectively. Aliquots of 120 μL were taken from the basolateral (for A–B transport) or the apical (for B–A transport) chamber at 30, 60, 90, and 120 min. An equal volume was replaced with a transport buffer at every time point. At the beginning and at the end of the experiment, an aliquot was also taken from the apical or basolateral chamber for analysis of the drug. To determine the integrity of monolayers, TEER values were measured before and after the experiment. In addition, at the end of the experiment cells were collected and lysed to evaluate the compound intake. Briefly, cells were washed twice with cold PBS and 200 µL of cold MeOH was added to detach and lysate the cells; subsequently, cells were collected into lo‐bind Eppendorf and sonicated in ice for 10 min, then centrifuged for 15 min at 4°C at 14,000 rpm (Eppendorf Centrifuge 5430 R). The supernatant was collected and used for further analysis.
(§2) The apparent permeability P app (cm/s) of compounds was calculated from the following equation (Equation 1), while P app (cm/s) of the metabolites was calculated from the equation (Equation 2): (1) Papp=dQ/dt×1/C×1/A.
(§3) Equation (1) for calculating P app (cm/s) of tested reference compounds. (2) Papp=Metabolic cleareance/A.
(§4) Equation (2) for calculating P app (cm/s) of compound metabolites.
(§5) with Metabolic cleareance=Rate of metabolism/C and where dQ/dt is the rate of transport, C is the initial concentration in the donor compartment, and A is the surface area of the filter. To quantify the rate of transport, cumulative amounts of test compounds were plotted against time (min).
(§6) Efflux ratio was calculated using the following equation (Equation 3)^[ [48] ^]: (3) Efflux ratio=Papp(B−A)/Papp(A−B).

[1] = as above; format: in vitro ADME, canine; conditions: dog; Wt‐MDCK model; Papp(B−A)/Papp(A−B); N = 4; read-out: Efflux ratio (mean ± SD)
Description: as §1, §2, §3, §4, §5, §6

P‐gp [2] = biological target: T1, P‐gp (Homo sapiens, UniProt P08183); experiment: Rhodamine‐123 uptake assay, inhibition, differentiated Caco2 cells; format: cell-based; conditions: VL initial concentration 50 and 25 µM, 90 min
T1 construct: P‐gp modulation was determined in differentiated Caco2 cells by Rh‐123 uptake assay; endogenous in cells; host or cells: differentiated Caco2 cells (21 days)
Description: To evaluate P‐gp inhibition on day 21, the medium was removed and 200 μL Hank's salt solution was added, the plate was then incubated for 40 min. […] After treatment cells were washed three times with ice‐cold PBS, and 200 μL of lysis buffer (0.1% Triton X 100 and 0.2 N NaOH) was added. The plate was kept on a shaker for 2 h at room temperature, and 100 μL of lysate was used to measure the Rh‐123 fluorescence at 485/529 nm. Further, 10 μL of lysate was taken in a separate 96‐well plate, and 190 μL Bradford reagent was added. The plate was shaken for 5–10 min, and absorbance was measured at 595 nm. Each sample was normalized by dividing the fluorescence of each sample by the total proteins present in the lysate.^[ [46] ^]

P‐gp [3] = experiment: Rhodamine‐123 uptake assay, induction (48 h), differentiated Caco2 cells; format: cell-based, human; conditions: 2.5 to 10 µM, 48 h treatment
Description: P‐gp modulation was determined in differentiated Caco2 cells by Rh‐123 uptake assay.^[ [49] ^] In brief, cells in the logarithmic growth phase with 70%–80% confluency were harvested and seeded at a density of 2 × 10^4/well of a 96‐well plate. Cells were allowed to grow for 21 days in a CO2 incubator changing the medium every other day.
After treatment, cells were washed with Hank's buffer and 200 μL of phenol, and serum‐free DMEM/F12 medium containing […] of Rh‐123 was added and cells were incubated for 90 min. The final steps were as described previously.

Caco2 monolayers = experiment: In vitro transport study across 21‐day Caco2 monolayers; format: in vitro ADME, human; conditions: Caco2 model, VL 50 μM dosed (VLS formed as metabolite), controls 10 μM, N = 4
Description: as §1, §2, §3, §4, §5, §6

[4] = as above; format: in vitro ADME, human; conditions: human, Caco-2, Caco2 model, N = 4
Description: as §1, §2, §3, §4, §5, §6

BCRP = biological target: T2, BCRP (Homo sapiens, UniProt Q9UNQ0); experiment: Rhodamine‐123 uptake assay, cotreatment with elacridar, differentiated Caco2 cells; format: cell-based; conditions: at higher doses
T2 construct: performing the Rh‐123 uptake‐based efflux assay in the differentiated Caco2 cell line; endogenous in cells; host or cells: differentiated Caco2 cells (21 days)
T2 sequence (Q9UNQ0 1-655): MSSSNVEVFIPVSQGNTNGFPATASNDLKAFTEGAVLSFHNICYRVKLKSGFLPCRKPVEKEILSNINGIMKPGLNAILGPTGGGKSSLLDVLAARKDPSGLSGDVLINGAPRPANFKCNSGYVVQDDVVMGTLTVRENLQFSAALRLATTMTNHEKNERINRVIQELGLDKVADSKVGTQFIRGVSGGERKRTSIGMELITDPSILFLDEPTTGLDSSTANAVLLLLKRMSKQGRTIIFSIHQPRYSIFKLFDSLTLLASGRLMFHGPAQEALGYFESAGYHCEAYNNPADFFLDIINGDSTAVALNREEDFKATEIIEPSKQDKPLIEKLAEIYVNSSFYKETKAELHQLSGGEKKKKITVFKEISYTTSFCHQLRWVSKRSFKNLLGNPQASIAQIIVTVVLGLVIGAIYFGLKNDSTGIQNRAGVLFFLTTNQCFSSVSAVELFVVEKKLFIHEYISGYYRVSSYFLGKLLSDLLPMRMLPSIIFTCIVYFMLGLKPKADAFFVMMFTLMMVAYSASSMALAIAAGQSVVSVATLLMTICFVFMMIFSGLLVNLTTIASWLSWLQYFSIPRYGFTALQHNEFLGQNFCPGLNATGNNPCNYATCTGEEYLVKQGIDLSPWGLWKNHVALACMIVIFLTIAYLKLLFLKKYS

T1 sequence (P08183 whole entry): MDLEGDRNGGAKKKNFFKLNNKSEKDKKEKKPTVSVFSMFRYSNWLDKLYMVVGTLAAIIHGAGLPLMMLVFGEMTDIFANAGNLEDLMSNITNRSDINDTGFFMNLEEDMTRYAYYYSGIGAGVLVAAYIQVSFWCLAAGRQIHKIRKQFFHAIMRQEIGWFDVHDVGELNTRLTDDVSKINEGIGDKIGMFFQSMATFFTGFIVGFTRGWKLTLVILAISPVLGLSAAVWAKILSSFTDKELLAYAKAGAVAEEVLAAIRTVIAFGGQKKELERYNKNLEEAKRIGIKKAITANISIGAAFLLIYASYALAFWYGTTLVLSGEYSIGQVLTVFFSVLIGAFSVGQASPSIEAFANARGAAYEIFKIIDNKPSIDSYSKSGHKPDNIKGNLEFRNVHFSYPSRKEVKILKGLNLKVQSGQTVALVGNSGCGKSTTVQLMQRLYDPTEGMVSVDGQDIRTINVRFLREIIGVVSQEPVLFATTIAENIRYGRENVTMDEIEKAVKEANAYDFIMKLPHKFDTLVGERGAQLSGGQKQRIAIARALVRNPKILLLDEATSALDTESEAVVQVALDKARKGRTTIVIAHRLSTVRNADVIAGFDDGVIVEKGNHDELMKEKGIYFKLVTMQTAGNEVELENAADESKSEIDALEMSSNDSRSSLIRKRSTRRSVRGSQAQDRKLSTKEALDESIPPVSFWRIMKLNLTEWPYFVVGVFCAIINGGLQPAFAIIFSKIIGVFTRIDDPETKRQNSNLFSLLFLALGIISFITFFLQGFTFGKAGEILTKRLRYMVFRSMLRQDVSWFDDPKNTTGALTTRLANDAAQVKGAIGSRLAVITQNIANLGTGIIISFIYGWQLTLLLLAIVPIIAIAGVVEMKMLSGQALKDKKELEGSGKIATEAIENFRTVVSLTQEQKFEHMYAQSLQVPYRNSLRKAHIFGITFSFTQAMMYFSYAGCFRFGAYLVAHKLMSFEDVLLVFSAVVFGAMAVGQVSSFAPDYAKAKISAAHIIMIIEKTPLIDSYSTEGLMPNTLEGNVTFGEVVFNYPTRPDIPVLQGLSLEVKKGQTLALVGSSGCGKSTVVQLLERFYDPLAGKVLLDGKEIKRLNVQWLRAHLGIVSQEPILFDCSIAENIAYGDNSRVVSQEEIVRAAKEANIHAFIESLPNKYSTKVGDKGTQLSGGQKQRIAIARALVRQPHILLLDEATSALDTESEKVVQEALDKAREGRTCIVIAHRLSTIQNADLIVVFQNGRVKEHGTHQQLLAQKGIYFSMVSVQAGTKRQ

- P app B–A (mean ± SD) (Wt‐MDCK monolayers; secretory direction): 14.43 ×10⁻⁶ cm/s
- efflux ratio at 120 min [1]: 0.843 ± 0.105
- Rh‐123 uptake in cotreatment with CsA 20 µM (P‐gp [2]): nonsignificant results
- P app A–B (mean ± SD) (Caco2 monolayers; absorptive direction): 22.25 ×10⁻⁶ cm/s
- P app B–A (mean ± SD) (Caco2 monolayers; secretory direction): 55.35 ×10⁻⁶ cm/s
- Papp A→B at 120 min ([4]; absorptive direction, VL 50 μM dosed (VLS formed as metabolite), controls 10 μM, read-out: P app A–B (mean ± SD)): 22.3 ×10⁻⁶ cm/s
- Papp B→A at 120 min ([4]; secretory direction, VL 50 μM dosed (VLS formed as metabolite), controls 10 μM, read-out: P app B–A (mean ± SD)): 55.4 ×10⁻⁶ cm/s
- efflux ratio at 120 min ([4]; Papp(B−A)/Papp(A−B), read-out: Efflux ratio (mean ± SD)): 2.35 ± 0.341
Compound: O=C1CCC(Cc2ccc(O)c(OS(=O)(=O)O)c2)O1 (centres unmarked) [VLS, valerolactone sulfate]
- P app A–B (mean ± SD) (Wt‐MDCK monolayers; absorptive direction): 17.33 ×10⁻⁶ cm/s and 173.3 ± 25 ×10⁻⁶ cm/s
- P‐gp induction (P‐gp [3]): no significant data of P‐gp induction
- effect on BCRP efflux transporter (BCRP): slightly activates the BCRP efflux transporter
